Results taken from article PMC11851430, “Workflow for E3 Ligase Ligand Validation for PROTAC Development” (ACS Chemical Biology, 2025).

Tests used:
[1] = tested on: Jurkat cells; assay: CellTiterGlo cell viability assay; format: cell-based, human; conditions: Homo sapiens, 24 h, mean of triplicates, ^b/^c values estimated, read-out: IC50±sd/μM (cell viability)
Procedure: The effects of the compounds on cell viability was determined using the CellTiter-Glo® 2.0 Cell Viability Assay (Promega: G9241) following manufacturer’s protocol. Ten µL of Jurkat cells at […]
After equilibration, PROTACs were titrated at various concentrations using an Echo acoustic […]
volume of CellTiter-Glo® 2.0 reagent (10 µL) was added to each well and cells were incubated for 10 minutes at room temperature. Filtered luminescence was measured on a PHERAstar plate reader (BMG Labtech) and data was evaluated using GraphPad Prism 9 software employing a normalized curve it with the following equation: Y=Bottom + (Top-Bottom)/(1+10(LogEC50-X) *HillSlope).
Sample preparation. Jurkat cells (ATCC © HTB-22) were cultured in RPMI (Thermo: […]

[2] = tested on: kinase protein levels in Jurkat cells; assay: TMT-labeled quantitative proteomics; format: cell-based, human; conditions: Jurkat, 1 µM, set1.2
Procedure: cultured in RPMI (Thermo: 11875093) supplemented as mentioned above. Cells were seeded in 6 well plates (Greiner: 657160) at a cell density of 1·10 6 cells/well and left at 37 °C and 5% […]
(§1) 50 µl of SDS Lysis Buffer (2% SDS, 50 mM TRIS pH 8.5, 10 mM TCEP, 40 mM CAA) was added to each sample. Cells were transferred into low binding reaction tubes (Eppendorf:
0030108116) and samples were boiled for 15 minutes at 95 °C and sonicated for 2 minutes.
(§2) Methanol/Chloroform Precipitation. 200 µl of methanol and 50 µl of chloroform were added to each sample reaction tube and mixed via vortex. 150 µl of milliQ-H2O were added and samples were vortexed further. Samples were centrifuged for 5 minutes at 15000 g and the aqueous layer above the interphase was removed. 150 µl of methanol was added, samples were vortexed and centrifuged for 10 minutes at 15000 g to precipitate the pellet. The aforementioned wash procedure was repeated twice before transferring the pellet to a new low bind reaction tube in which it was allowed to dry for 5 minutes.
Dissolving the Protein Pellet and Protein Quantification. 50 µl of digestion buffer (8 M Urea, 50 mM TRIS pH 8) was added to each sample before vortexing and shaking at 750 rpm at room temperature for 10 minutes to solubilize the pellet. Protein quantification via PierceTM BCA Protein Assay Kit (Thermo: 23225) was carried out according to manufacturer’s protocol.
(§3) Protein Digestion. Samples were diluted 1:2 with 50 mM TRIS pH 8.5 to reach a final concentration of 4 M Urea. Lys-C (Promega: VA1170) was added at a 1:100 enzyme/substrate ratio. Samples were agitated at 550 rpm and 37 °C for 3 h. Samples were further diluted with 50 mM TRIS pH 8.5 to a final concentration of 1 M Urea and Trypsin (Promega: V5280) was added at a 1:100 enzyme/substrate ratio. Samples were agitated overnight at 550 rpm and 37 °C. The digestion was stopped the following day via addition of TFA to a final concentration […]
(§4) Solid Phase Extraction via C18 Cartridges. Sep-Pak C18 Cartridges (Waters: WAT054955) were used for solid phase extraction of digested peptides. For preconditioning of C18 cartridges, 1 mL of methanol was added to each column followed by 1 mL of solution B (0.1% formic acid, 80% acetonitrile) and 1 mL of solution A (0.1% formic acid, ddH2O) twice. Samples […]
(§5) were loaded to their respective columns and once samples had passed, columns were washed twice with solution A to remove unwanted components from the loading step. Elution of samples was carried out via introduction of 40% and 60% acetonitrile steps. Samples were dried and snap frozen in liquid nitrogen.
TMT-Labeling. Desalted peptides were dried and resuspended in TMT-labeling buffer (200 mM EPPS pH 8.2, 20% acetonitrile). 10 μg of peptides per condition were subjected to TMT labeling with 1:2.5 peptide TMT ratio (w/w) for 1 h at room temperature. The labeling reaction was quenched by addition of hydroxylamine to a final concentration of 0.5% and incubation at room temperature for 15 minutes. Successful TMT labeling was verified by mixing equimolar ratios of peptides and subjecting the mix to single shot LC-MS/MS analysis. For high pH reversed phase fractionation on a Dionex analytical HPLC, 50 µg of pooled and purified TMT labelled samples were resuspended in 10 mM ammonium-bicarbonate (ABC), 5% acetonitrile, […]
particle size; Phenomenex) using a multistep gradient from 100% solvent A (5% acetonitrile, 10 mM ABC in water) to 60% solvent B (90% acetonitrile, 10 mM ABC in water) over 70 minutes. Eluting peptides were collected every 45 seconds into a total of 96 fractions, which were cross-concatenated into 24 fractions and dried in a vacuum concentrator and resuspended in 3% acetonitrile with 0.1% TFA for LC-MS analysis.
Mass spectrometry data acquisition. Tryptic peptides were analyzed on an Orbitrap Lumos coupled to an easy nLC 1200 (ThermoFisher Scientific) using a 35 cm long, 75 µm ID fused-

[3] = molecular target: T1, kinase protein levels in MCF-7 cells (Homo sapiens, UniProt A0A0B4J2F0); assay: TMT-labeled quantitative proteomics; format: cell-based; conditions: protein PIGBOS1; MCF7; 1 µM; set1.1
T1 construct: endogenous in cells; host or cells: MCF-7
T1 sequence (A0A0B4J2F0 1-54): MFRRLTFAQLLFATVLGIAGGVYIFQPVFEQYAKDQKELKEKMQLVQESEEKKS
Procedure: as §1, §2
(§6) Dissolving the Protein Pellet and Protein Quantification. 50 µl of digestion buffer (8 M Urea, 50 mM TRIS pH 8) was added to each sample before vortexing and shaking at 750 rpm at room temperature for 10 minutes to solubilize the pellet. Protein quantification via PierceTM […]
as §3, §4, §5
(§7) TMT-Labeling. Desalted peptides were dried and resuspended in TMT-labeling buffer (200 mM EPPS pH 8.2, 20% acetonitrile). 10 μg of peptides per condition were subjected to TMT labeling with 1:2.5 peptide TMT ratio (w/w) for 1 h at room temperature. The labeling reaction was quenched by addition of hydroxylamine to a final concentration of 0.5% and incubation at room temperature for 15 minutes. Successful TMT labeling was verified by mixing equimolar ratios of peptides and subjecting the mix to single shot LC-MS/MS analysis. For high pH reversed phase fractionation on a Dionex analytical HPLC, 50 µg of pooled and purified TMT labelled samples were resuspended in 10 mM ammonium-bicarbonate (ABC), 5% acetonitrile, and separated on a 250 mm long C18 column (Aeris Peptide XB-C18, 4.6 mm ID, 2.6 µm particle size; Phenomenex) using a multistep gradient from 100% solvent A (5% acetonitrile, 10 mM ABC in water) to 60% solvent B (90% acetonitrile, 10 mM ABC in water) over 70 minutes. Eluting peptides were collected every 45 seconds into a total of 96 fractions, which were cross-concatenated into 24 fractions and dried in a vacuum concentrator and resuspended in 3% acetonitrile with 0.1% TFA for LC-MS analysis.
(§8) Mass spectrometry data acquisition. Tryptic peptides were analyzed on an Orbitrap Lumos coupled to an easy nLC 1200 (ThermoFisher Scientific) using a 35 cm long, 75 µm ID fused-silica column packed in house with 1.9 µm C18 particles (Reprosil pur, Dr. Maisch), and kept at 50 °C using an integrated column oven (Sonation). HPLC solvents consisted of 0.1% formic acid in water (buffer A) and 0.1% formic acid and 80% acetonitrile in water (buffer B). Assuming

[4] = tested on: kinase protein levels in MCF-7 cells; assay: TMT-labeled quantitative proteomics; format: cell-based, human; conditions: for log2FC (compound/DMSO): MCF7, 1 µM, set1.1
Procedure: as §1, §2, §6, §3, §4, §5, §7, §8

[5] = molecular target: VHL (Homo sapiens, UniProt P40337); assay: NanoBRET target engagement assay; conditions: permeabilized cells
VHL, sequence (P40337 whole entry): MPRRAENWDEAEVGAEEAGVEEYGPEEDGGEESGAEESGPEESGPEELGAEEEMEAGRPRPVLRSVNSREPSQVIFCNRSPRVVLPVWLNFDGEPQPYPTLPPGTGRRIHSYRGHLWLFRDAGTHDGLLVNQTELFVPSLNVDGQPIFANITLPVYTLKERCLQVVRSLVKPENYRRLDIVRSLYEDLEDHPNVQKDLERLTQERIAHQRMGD
Procedure: Compounds were pipetted at various concentrations using an Echo acoustic dispenser (Labcyte), immediately followed by Tracer K10 (Promega, Tracer DB ID: T000008) for AAK1 and Aurora A and VHL Tracer (Promega, Tracer DB ID: T000019) for VHL, at an optimum KD concentration chosen from TracerDB ( tracerdb.org), respectively.
To measure the BRET signal, the NanoBRET® NanoGlo Substrate (Promega:
N1573) was added as per the manufacturer’s protocol, and filtered luminescence was measured on a PHERAstar plate reader (BMG Labtech) equipped with a luminescence filter pair (450 nm BP filter (donor) and 610 nm LP filter (acceptor)). For NanoBRET® measurement in permeabilized cells, 25 nL of digitonin (0.05 μg/μL) was pipetted into each well using an
After incubation, the BRET signals were measured by a PHERAstar plate reader (BMG Labtech) following the same procedure as intact NanoBRET® measurement. Competitive displacement data were then normalized to controls and were plotted using GraphPad Prism 9 software employing a normalized 3-parameter curve fit with the following equation:

Structure (SMILES): Cc1ncsc1-c1ccc(CNC(=O)[C@@H]2C[C@@H](O)CN2C(=O)[C@@H](NCCOCCOCCOCCOCCC(=O)N2CCN(c3ccc(Nc4ncc(Cl)c(Nc5ccccc5C(N)=O)n4)cc3)CC2)C(C)(C)C)cc1 [6-c]
- IC50 [1]: 8.5 ± 0.8 µM
- log2FC (compound/DMSO) ([2]; protein NUDT4): 0.05309
- log2FC (compound/DMSO) ([2]; protein PIGBOS1): -0.1563
- log2FC (compound/DMSO) ([2]; protein TRAV8-2): -0.1064
- log2FC (compound/DMSO) ([2]; protein TRBV12-3;TRBV12-4): -0.03811
- P.Value (compound/DMSO) [3]: 0.867
- log2FC (compound/DMSO) [3]: -0.01736
- kinase degradation ([4]; MCF-7 cells, 1 μM, 6 h): did not result in significant degradation of any kinase
- log2FC (compound/DMSO) ([4]; protein NBPF19;NBPF15;NBPF8;NBPF10;NBPF26;NBPF14): -0.692
- log2FC (compound/DMSO) ([4]; protein NUDT4): -0.0761
- VHL binding [5]: did not bind strongly to VHL
